Laboratory results from ChEMBL document CHEMBL1148526, “Facile purification of honokiol and its antiviral and cytotoxic properties” (J Med Chem, 2006).

Assays:
Type in all cases: functional
PBMC [1] = test: Cytotoxicity against human PBM cells
Vero = test: Cytotoxicity against Vero cells; conditions: Chlorocebus sabaeus
CCRF-CEM = test: Cytotoxicity against human CEM cells
PBMC [2] = test: Selectivity index of antiviral vs cytoxic activity in PBM cells (CC50/EC50)

| Structure (SMILES) | CC50 (PBMC [1]) [µM] | CC50 (Vero) [µM] | CC50 (CCRF-CEM) [µM] | Ratio CC50/EC50 (PBMC [2]) |
| --- | --- | --- | --- | --- |
| C=CCc1ccc(O)c(-c2cc(CC=C)ccc2O)c1 [MAGNOLOL] | 38.6 | 50.6 | 99.5 | – |
| C=CCc1ccc(O)c(-c2ccc(O)c(CC=C)c2)c1 [HONOKIOL] | 16.1 | 22.5 | 10.9 | 5 |
